Assay results: patent US20200261484A1, “INHIBITION OF AUTISM SPECTRUM DISORDER USING RIBOSOMAL READ-THROUGH COMPOUNDS” (Friedrich Miescher Inst. for Biomedical Research, priority 2017, published 2020)

Tested on: Adnp-PTC718 expressing cells
Assay: Streptavidin purification and LC-MS/MS of FLAG/Avi-tagged Adnp-PTC718 from cells with and without aminoglycoside treatment (stop codon read-through, ChAHP complex formation)
Format: cell-based, mouse
Details: Adnp-PTC718 expressing cells treated with 2 mg/ml gentamycin (2.9 mM) or paromomycin (3.2 mM) for 24 hours; LC-MS/MS of streptavidin-purified Adnp-PTC718
Description: FLAG/Avi-tagged Adnp-PTC718 was streptavidin purified from cells with and without aminoglycoside treatment and subjected to LC-MS/MS analysis. Adnp-PTC718 expressing cells were treated with 2 mg/ml gentamycin (2.9 mM) or paromomycin (3.2 mM) for 24 hours. The table depicts total spectral counts, unique peptides and percent sequence coverage for all ChAHP components from the different treatments.
Cells were grown to confluency on 10 cm dish, collected in PBS, and pelleted by 2 min centrifugation at 400 g. All subsequent steps were performed on ice or at 4 C. Pellets were resuspended in 3 ml of Nuclear extract buffer 1 (NEB1: 20 mM HEPES, 10 mM KCl, 1 mM EDTA, 0.1 mM Na3VO4, 0.2% NP-40, 10% glycerol, 1 mM DTT, 1×PIC) followed by centrifugation at 1000 g for 3 min. […] Protein concentration was determined using Bradford assay, and approximately 250 µg of nuclear extracts were used per affinity purification. […] The generated peptides were acidified with TFA to a final concentration of 0.8% and analyzed by capillary liquid chromatography tandem mass spectrometry with an EASY-nLC 1000 using the two-column set-up (Thermo Scientific). […] Protein identification and relative quantification of the proteins was done with MaxQuant version 1.5.3.8 using Andromeda as search engine^33 and label free quantification (LFQ.^34) as described in^35. […]

Row | Molecule | formation of the ChAHP complex (stop codon read-through)
1 | NC[C@@H]1O[C@H](O[C@H]2[C@@H](O)[C@H](O[C@@H]3[C@@H](O)[C@H](N)C[C@H](N)[C@H]3O[C@H]3O[C@H](CO)[C@@H](O)[C@H](O)[C@H]3N)O[C@@H]2CO)[C@H](N)[C@@H](O)[C@@H]1O [paromomycin] | restore the formation of the ChAHP complex
2 | gentamycin | restore the formation of the ChAHP complex
